Source: ChEMBL document CHEMBL5370531, “Design, synthesis and pharmacological evaluation of 2,3-dihydrobenzofuran IRAK4 inhibitors for the treatment of diffuse large B-cell lymphoma” (Eur J Med Chem, 2023)
pIC50: −log10 of the molar value. The source made the active and inactive calls. The rule behind the calls is not given here.

How the values were obtained:
OCI-Ly10 [1] = assay: Cytotoxicity against human OCILY10 cells assessed as inhibition of cell proliferation incubated for 72 hrs by CCK-8 assay; assay type: functional, cell-based; settings: OCI-Ly10, 72 h
[2] = biological target: Proto-oncogene tyrosine-protein kinase receptor Ret (Homo sapiens) (UniProt P07949); assay: Inhibition of RET (unknown origin) at 100 nM incubated for 1 hr in presence of ATP by ELISA analysis relative to control
[3] = biological target: Vascular endothelial growth factor receptor 3 (Homo sapiens) (UniProt P35916); assay: Inhibition of VEGFR3 (unknown origin) at 100 nM incubated for 1 hr in presence of ATP by ELISA analysis
[4] = biological target: Platelet-derived growth factor receptor alpha (Homo sapiens) (UniProt P16234); assay: Inhibition of PDGFR-alpha (unknown origin) at 100 nM incubated for 1 hr in presence of ATP by ELISA analysis
[5] = biological target: Fibroblast growth factor receptor 3 (Homo sapiens) (UniProt P22607); assay: Inhibition of FGFR3 (unknown origin) at 100 nM incubated for 1 hr in presence of ATP by ELISA analysis
[6] = biological target: Vascular endothelial growth factor receptor 1 (Homo sapiens) (UniProt P17948); assay: Inhibition of VEGFR1 (unknown origin) at 100 nM incubated for 1 hr in presence of ATP by ELISA analysis
[7] = biological target: Proto-oncogene tyrosine-protein kinase Src (Homo sapiens) (UniProt P12931); assay: Inhibition of SRC (unknown origin) at 100 nM incubated for 1 hr in presence of ATP by ELISA analysis
OCI-Ly10 [8] = assay: Induction of apoptosis in human OCILY10 cells assessed as early apoptotic cells at 0.5 uM incubated for 24 hrs by Annexin V-FITC/PI staining based flow cytometry (reference value: 10 %); assay type: functional
OCI-Ly10 [9] = assay: Induction of apoptosis in human OCILY10 cells assessed as late apoptotic cells at 0.1 uM incubated for 24 hrs by Annexin V-FITC/PI staining based flow cytometry (reference value: 3.71 %); assay type: functional
OCI-Ly10 [10] = assay: Induction of apoptosis in human OCILY10 cells assessed as late apoptotic cells at 1 uM incubated for 24 hrs by Annexin V-FITC/PI staining based flow cytometry (reference value: 3.71 %); assay type: functional
OCI-Ly10 [11] = assay: Induction of apoptosis in human OCILY10 cells assessed as early apoptotic cells at 0.2 uM incubated for 48 hrs by Annexin V-FITC/PI staining based flow cytometry (reference value: 5.4 %); assay type: functional
OCI-Ly10 [12] = assay: Induction of apoptosis in human OCILY10 cells assessed as late apoptotic cells at 0.2 uM incubated for 48 hrs by Annexin V-FITC/PI staining based flow cytometry (reference value: 3.54 %); assay type: functional
OCI-Ly10 [13] = assay: Induction of apoptosis in human OCILY10 cells assessed as late apoptotic cells at 0.5 uM incubated for 48 hrs by Annexin V-FITC/PI staining based flow cytometry (reference value: 3.54 %); assay type: functional
OCI-Ly10 [14] = assay: Induction of apoptosis in human OCILY10 cells assessed as late apoptotic cells at 1 uM incubated for 48 hrs by Annexin V-FITC/PI staining based flow cytometry (reference value: 3.54 %); assay type: functional
OCI-Ly10 [15] = assay: Induction of apoptosis in human OCILY10 cells at 0.5 uM incubated for 24 hrs by Annexin V-FITC/PI staining based flow cytometry; assay type: functional
OCI-Ly10 [16] = assay: Induction of apoptosis in human OCILY10 cells at 1 uM incubated for 24 hrs by Annexin V-FITC/PI staining based flow cytometry; assay type: functional
OCI-Ly10 [17] = assay: Induction of apoptosis in human OCILY10 cells at 1 uM incubated for 48 hrs by Annexin V-FITC/PI staining based flow cytometry; assay type: functional
OCI-Ly10 [18] = assay: Induction of apoptosis in human OCILY10 cells assessed as upregulation of caspase-3 cleavage at 0.1 to 1 uM incubated for 24 hrs by immunoblotting analysis; assay type: functional, cell-based; settings: dose 0.1-1 µM
OCI-Ly10 [19] = assay: Synergistic antiproliferative activity against human OCILY10 cells harboring MYD88 L265P assessed as inhibition of cell growth at 1600 nM incubated for 72 hrs in presence of BTK inhibitor, ibrutinib at 1.6 nM by CCK-8 assay (reference value: 64.69 %); assay type: functional
OCI-Ly10 [20] = assay: Synergistic antiproliferative activity against human OCILY10 cells harboring MYD88 L265P assessed as inhibition of cell growth at 800 nM incubated for 72 hrs in presence of BTK inhibitor, ibrutinib at 3.1 nM by CCK-8 assay (reference value: 54.76 %); assay type: functional
OCI-Ly10 [21] = assay: Synergistic antiproliferative activity against human OCILY10 cells harboring MYD88 L265P assessed as inhibition of cell growth at 1600 nM incubated for 72 hrs in presence of BTK inhibitor, ibrutinib at 3.1 nM by CCK-8 assay (reference value: 64.69 %); assay type: functional
OCI-Ly10 [22] = assay: Synergistic antiproliferative activity against human OCILY10 cells harboring MYD88 L265P assessed as inhibition of cell growth at 100 nM incubated for 72 hrs in presence of BTK inhibitor, ibrutinib at 12.5 nM by CCK-8 assay (reference value: 21.36 %); assay type: functional
OCI-Ly10 [23] = assay: Synergistic antiproliferative activity against human OCILY10 cells harboring MYD88 L265P assessed as inhibition of cell growth at 400 nM incubated for 72 hrs in presence of BTK inhibitor, ibrutinib at 12.5 nM by CCK-8 assay (reference value: 34.46 %); assay type: functional
OCI-Ly10 [24] = assay: Synergistic antiproliferative activity against human OCILY10 cells harboring MYD88 L265P assessed as inhibition of cell growth at 200 nM incubated for 72 hrs in presence of BTK inhibitor, ibrutinib at 25 nM by CCK-8 assay (reference value: 26.07 %); assay type: functional
OCI-Ly10 [25] = assay: Synergistic antiproliferative activity against human OCILY10 cells harboring MYD88 L265P assessed as inhibition of cell growth at 400 nM incubated for 72 hrs in presence of BTK inhibitor, ibrutinib at 25 nM by CCK-8 assay (reference value: 34.46 %); assay type: functional
OCI-Ly10 [26] = assay: Synergistic antiproliferative activity against human OCILY10 cells harboring MYD88 L265P assessed as inhibition of cell growth at 800 nM incubated for 72 hrs in presence of BTK inhibitor, ibrutinib at 25 nM by CCK-8 assay (reference value: 54.76 %); assay type: functional
OCI-Ly10 [27] = assay: Synergistic antiproliferative activity against human OCILY10 cells harboring MYD88 L265P assessed as inhibition of cell growth at 1600 nM incubated for 72 hrs in presence of BTK inhibitor, ibrutinib at 25 nM by CCK-8 assay (reference value: 64.69 %); assay type: functional
OCI-Ly10 [28] = assay: Induction of apoptosis in human OCILY10 cells harboring MYD88 L265P assessed as late apoptotic cells at 0.2 uM incubated for 48 hrs in presence of BTK inhibitor, ibrutinib by Annexin V-FITC/PI staining based flow cytometry (reference value: 6.59 %); assay type: functional
OCI-Ly10 [29] = assay: Induction of apoptosis in human OCILY10 cells harboring MYD88 L265P assessed as upregulation of caspase-3 cleavage at 0.2 uM in presence of BTK inhibitor, ibrutinib by immunoblotting analysis; assay type: functional, cell-based

Chain of Platelet-derived growth factor receptor alpha (Homo sapiens) (P16234 whole entry): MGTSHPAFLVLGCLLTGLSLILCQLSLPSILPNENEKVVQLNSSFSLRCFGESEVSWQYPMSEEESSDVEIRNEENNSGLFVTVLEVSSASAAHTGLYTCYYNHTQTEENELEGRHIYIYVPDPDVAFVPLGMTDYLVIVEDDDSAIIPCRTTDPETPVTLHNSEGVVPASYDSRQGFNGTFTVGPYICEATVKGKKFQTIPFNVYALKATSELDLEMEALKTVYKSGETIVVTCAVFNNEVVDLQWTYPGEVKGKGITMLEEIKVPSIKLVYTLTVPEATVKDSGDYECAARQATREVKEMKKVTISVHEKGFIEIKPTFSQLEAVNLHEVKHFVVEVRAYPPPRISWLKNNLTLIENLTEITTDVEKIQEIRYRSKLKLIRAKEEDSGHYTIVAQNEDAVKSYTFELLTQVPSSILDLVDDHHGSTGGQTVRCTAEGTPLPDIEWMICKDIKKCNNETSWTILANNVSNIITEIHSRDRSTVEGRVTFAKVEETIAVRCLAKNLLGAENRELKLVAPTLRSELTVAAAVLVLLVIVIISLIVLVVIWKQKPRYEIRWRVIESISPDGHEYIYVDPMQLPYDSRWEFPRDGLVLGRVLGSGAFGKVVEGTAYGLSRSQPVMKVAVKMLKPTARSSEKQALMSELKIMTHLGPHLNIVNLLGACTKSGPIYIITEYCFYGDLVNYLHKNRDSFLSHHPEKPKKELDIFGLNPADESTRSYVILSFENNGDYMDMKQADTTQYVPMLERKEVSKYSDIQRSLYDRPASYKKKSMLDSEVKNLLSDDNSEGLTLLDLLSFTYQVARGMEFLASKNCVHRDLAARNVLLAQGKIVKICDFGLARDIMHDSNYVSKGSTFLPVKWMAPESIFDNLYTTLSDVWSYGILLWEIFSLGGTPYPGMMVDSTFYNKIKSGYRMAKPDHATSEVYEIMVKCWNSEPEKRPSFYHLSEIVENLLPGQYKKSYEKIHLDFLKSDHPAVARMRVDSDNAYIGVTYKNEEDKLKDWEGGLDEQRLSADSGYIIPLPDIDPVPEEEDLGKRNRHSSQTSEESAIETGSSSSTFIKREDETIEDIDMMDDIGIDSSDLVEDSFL
Chain of Proto-oncogene tyrosine-protein kinase Src (Homo sapiens) (P12931 2-536 limits assumed): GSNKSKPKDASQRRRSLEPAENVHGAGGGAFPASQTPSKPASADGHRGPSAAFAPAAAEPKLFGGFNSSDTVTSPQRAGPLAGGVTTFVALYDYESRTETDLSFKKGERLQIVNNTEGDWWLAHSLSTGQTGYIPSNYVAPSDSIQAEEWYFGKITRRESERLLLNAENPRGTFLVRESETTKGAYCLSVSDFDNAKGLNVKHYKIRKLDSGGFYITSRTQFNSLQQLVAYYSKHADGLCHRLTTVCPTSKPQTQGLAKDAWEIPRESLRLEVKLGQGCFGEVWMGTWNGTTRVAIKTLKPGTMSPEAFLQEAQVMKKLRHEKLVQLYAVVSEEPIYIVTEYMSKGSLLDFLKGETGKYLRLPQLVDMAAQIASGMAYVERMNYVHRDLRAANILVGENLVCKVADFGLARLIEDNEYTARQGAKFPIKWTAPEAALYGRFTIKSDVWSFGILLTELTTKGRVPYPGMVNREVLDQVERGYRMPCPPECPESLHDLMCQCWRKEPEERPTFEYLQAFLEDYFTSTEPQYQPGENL
Chain of Fibroblast growth factor receptor 3 (Homo sapiens) (P22607 23-806 limits assumed): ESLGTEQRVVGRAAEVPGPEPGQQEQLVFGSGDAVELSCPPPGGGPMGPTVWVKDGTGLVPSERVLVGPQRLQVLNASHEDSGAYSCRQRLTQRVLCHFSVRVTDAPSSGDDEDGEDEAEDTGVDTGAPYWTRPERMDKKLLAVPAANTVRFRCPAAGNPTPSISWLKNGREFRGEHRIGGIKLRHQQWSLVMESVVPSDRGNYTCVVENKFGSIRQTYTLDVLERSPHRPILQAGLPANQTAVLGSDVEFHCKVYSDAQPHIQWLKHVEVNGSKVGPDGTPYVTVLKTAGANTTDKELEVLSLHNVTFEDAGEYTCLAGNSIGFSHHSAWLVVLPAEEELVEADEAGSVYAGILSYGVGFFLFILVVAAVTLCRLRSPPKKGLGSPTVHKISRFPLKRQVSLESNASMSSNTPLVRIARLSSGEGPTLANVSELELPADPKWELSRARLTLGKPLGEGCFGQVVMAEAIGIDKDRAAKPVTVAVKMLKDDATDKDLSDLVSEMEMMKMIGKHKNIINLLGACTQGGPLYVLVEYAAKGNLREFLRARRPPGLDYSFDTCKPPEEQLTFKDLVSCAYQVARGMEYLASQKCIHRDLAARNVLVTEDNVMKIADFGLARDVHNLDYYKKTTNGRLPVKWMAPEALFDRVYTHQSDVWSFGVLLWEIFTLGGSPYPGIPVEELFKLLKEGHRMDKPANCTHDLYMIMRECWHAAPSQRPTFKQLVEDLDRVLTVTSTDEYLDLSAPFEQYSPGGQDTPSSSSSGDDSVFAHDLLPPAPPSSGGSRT
Chain of Proto-oncogene tyrosine-protein kinase receptor Ret (Homo sapiens) (P07949 whole entry): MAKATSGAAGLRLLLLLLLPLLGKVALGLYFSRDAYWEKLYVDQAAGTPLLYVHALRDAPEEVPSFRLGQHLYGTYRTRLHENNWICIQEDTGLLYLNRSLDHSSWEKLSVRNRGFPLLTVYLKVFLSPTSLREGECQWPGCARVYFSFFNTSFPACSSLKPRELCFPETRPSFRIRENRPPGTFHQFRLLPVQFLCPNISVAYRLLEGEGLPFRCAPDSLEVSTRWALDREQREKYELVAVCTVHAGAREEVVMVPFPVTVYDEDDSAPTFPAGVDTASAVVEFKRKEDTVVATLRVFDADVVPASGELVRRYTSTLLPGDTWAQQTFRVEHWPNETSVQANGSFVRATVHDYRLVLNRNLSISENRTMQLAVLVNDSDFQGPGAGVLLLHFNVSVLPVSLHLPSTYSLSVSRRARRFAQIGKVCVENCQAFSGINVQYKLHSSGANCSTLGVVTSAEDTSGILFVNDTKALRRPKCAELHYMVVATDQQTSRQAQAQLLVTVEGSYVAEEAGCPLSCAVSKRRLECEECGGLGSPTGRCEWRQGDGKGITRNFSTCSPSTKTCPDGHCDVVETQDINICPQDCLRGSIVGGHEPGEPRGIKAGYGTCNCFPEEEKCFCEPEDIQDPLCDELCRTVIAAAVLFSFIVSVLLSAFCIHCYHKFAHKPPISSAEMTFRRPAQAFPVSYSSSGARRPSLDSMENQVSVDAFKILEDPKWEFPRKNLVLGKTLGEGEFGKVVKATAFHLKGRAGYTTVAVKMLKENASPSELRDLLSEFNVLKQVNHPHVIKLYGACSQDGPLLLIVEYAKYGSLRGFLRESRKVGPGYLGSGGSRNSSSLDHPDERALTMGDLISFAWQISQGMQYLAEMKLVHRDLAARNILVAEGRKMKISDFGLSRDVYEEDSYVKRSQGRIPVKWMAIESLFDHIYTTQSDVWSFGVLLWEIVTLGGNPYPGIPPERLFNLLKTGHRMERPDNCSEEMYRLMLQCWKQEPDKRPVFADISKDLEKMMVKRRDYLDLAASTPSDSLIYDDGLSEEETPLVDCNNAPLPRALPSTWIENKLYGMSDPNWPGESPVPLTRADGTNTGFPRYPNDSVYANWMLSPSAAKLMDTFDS
Chain of Vascular endothelial growth factor receptor 3 (Homo sapiens) (P35916 whole entry): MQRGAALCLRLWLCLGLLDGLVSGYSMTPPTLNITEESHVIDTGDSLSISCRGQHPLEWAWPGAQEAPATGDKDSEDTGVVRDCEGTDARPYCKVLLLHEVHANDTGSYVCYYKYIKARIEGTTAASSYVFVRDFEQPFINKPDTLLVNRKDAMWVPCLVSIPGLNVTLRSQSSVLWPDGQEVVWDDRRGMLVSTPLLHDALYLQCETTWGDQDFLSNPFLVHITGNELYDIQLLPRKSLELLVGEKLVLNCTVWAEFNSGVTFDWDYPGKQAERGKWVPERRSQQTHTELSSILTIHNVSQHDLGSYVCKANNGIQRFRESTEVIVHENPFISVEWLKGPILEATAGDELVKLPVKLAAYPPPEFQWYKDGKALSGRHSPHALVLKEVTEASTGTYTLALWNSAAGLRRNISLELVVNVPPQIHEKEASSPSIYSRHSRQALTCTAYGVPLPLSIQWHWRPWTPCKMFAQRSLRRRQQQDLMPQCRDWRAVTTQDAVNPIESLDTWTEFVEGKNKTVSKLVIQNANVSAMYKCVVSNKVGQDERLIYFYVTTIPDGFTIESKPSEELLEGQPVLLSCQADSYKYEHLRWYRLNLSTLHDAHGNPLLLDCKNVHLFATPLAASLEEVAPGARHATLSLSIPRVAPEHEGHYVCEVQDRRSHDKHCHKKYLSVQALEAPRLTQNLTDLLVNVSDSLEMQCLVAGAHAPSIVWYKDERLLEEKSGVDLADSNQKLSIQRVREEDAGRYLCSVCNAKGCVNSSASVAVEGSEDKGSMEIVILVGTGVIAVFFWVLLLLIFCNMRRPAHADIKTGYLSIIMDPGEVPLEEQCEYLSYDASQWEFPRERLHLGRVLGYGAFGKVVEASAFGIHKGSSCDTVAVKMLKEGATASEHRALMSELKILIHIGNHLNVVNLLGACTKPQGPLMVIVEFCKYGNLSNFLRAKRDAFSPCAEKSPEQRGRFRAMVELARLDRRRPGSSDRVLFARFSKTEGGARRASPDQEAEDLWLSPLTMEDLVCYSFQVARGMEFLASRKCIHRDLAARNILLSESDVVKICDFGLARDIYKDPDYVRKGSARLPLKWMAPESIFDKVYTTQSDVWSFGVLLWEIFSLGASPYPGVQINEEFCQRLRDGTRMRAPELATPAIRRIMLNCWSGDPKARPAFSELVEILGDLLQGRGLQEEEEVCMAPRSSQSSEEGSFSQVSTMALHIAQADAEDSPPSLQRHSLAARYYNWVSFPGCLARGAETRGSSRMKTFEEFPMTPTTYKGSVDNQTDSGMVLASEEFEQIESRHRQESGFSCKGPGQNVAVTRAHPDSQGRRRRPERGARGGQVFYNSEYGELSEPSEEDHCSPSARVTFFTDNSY

Cn1cc(-c2cc3c(cc2NC(=O)c2coc(-c4ccnc(N)c4)n2)CC(C)(C)O3)cn1
pIC50 (OCI-Ly10 [1]): 6.61 | inhibition [2]: > 50% | inhibition [3]: inactive | inhibition [4]: inactive | inhibition [5]: inactive | inhibition [6]: inactive | inhibition [7]: inactive | Activity (OCI-Ly10 [8]): 22.8% | Activity (OCI-Ly10 [9]): 7.94% | Activity (OCI-Ly10 [10]): 33.7% | Activity (OCI-Ly10 [11]): 21.2% | Activity (OCI-Ly10 [12]): 13.2% | Activity (OCI-Ly10 [13]): 26.8% | Activity (OCI-Ly10 [14]): 37.7% | Activity (OCI-Ly10 [15]): 48.3% | Activity (OCI-Ly10 [16]): 66.8% | Activity (OCI-Ly10 [17]): 92.3% | Activity (OCI-Ly10 [18]): Active | inhibition at 1.6 µM (OCI-Ly10 [19]): 70.6% | inhibition at 0.8 µM (OCI-Ly10 [20]): 64.6% | inhibition at 1.6 µM (OCI-Ly10 [21]): 77.3% | inhibition at 0.1 µM (OCI-Ly10 [22]): 62.1% | inhibition at 0.4 µM (OCI-Ly10 [23]): 75.7% | inhibition at 0.2 µM (OCI-Ly10 [24]): 75.4% | inhibition at 0.4 µM (OCI-Ly10 [25]): 83.2% | inhibition at 0.8 µM (OCI-Ly10 [26]): 88.4% | inhibition at 1.6 µM (OCI-Ly10 [27]): 89.6% | Activity (OCI-Ly10 [28]): 33.2% | Activity (OCI-Ly10 [29]): Active
